This is an account of results in patent publication US20250368646A1, “TRICYCLIC FUSED WRN INHIBITORS” (Nimbus Wadjet, Inc., priority 2024, published 2025).

Test [1] deals with p21 induction in HCT 116 cells. Description: p21 induction in cells (in-cell western, p21/GAPDH ratio). It is filed as cell-based. Particulars: Homo sapiens; HCT 116 colon carcinoma cell line, 24 h compound incubation; percent activation vs internal reference WRN inhibitor; read-out: P21_EC50. How it is done:
The colon carcinoma cell line HCT 116 was obtained from ATCC and cultured in growth medium consisting of Mccoy's 5A Medium (Gibco 16600108) supplemented with […] (Transgene FS201-02) and 100 units/mL penicillin-streptomycin (Gibco 15140122) and maintained at 37° C. under […]. On the day of seeding, 2,000 cells in 30 μL of culture media were plated per well to Poly-D-Lysine 384 Well Black Clear Plates (Biocoat 356663) and incubated overnight at 37° C. under 5% CO2. The following day, compounds were serially diluted in DMSO for a total of 11 test concentrations. The typical starting concentration of cpds was 10 μM with 2-fold dilutions. Next, 150 nL of diluted compound was added in duplicate to the assay plate, using an Echo 655 (Labcyte). The plate was centrifuged at 500 RPM for 1 min and then incubated at 37° C. under 5% CO2 for 24 h. After 24 h, medium was removed, and cells were fixed by adding 40 µL of 4% paraformaldehyde solution to each well and incubated for 20 min at room temperature. The plate was then washed 4 times with 100 μL per well of wash buffer (PBS with 0.1% Tween-20) using a microplate washer. Next, 30 μL of ice-cold methanol was added to each well and the plate was incubated at −20° C. for 10 min. The plate was washed 4 times with 100 μL per well of wash buffer by a microplate washer, then 30 μL per well of blocking buffer (Intercept PBS blocking buffer (LI-COR 927-70001) with 0.05% Tween-20) was added and the plate was incubated at room temperature with shaking for 2 h. Next, to each test well, 20 μL of primary antibody solution (p21 Waf1/CIP (12D1) Rabbit mAb (Cell Signaling Technologies 2947) diluted 1:1000 and GAPDH (D4C6R) Mouse mAb (Cell Signaling Technologies 97166) diluted 1:2000 in blocking buffer) was added and the plate was placed at 4° C., overnight. The following day, the plate was washed 5 times with 100 μL per well of wash buffer using a microplate washer for 5 min. 20 μL per well of secondary antibody (IRDye 680CW Goat anti-Mouse IgG (H+L) (LI-COR 926-68070) diluted 1: 2000 in Blocking Buffer and IRDye 800CW Goat anti-Rabbit IgG (H+L) (LI-COR 926-32211) diluted 1: 2000 in Blocking Buffer) was then added and the plate was stored for 2 h in the dark at room temperature with shaking. The plate was then washed 4 times with 100 μL per well of wash buffer again using a microplate washer. Finally, the p21 signal and the GAPDH signal were quantified using a LI-COR Odyssey CLx Imager machine reading at 800 nm and 700 nm, respectively. Each plate contained DMSO control (low control) and an internal reference WRN inhibitor (high control) respectively. For quantitation, the 800 nm/700 nm ratio was calculated for each well to give fold p21 induction and then percent activation for each compound well was calculated as follows (100×(ratio cpd well-ratio low control)/(ratio high control−ratio low control)). EC50 values for each compound were generated after non-linear regression curve fitting using commercially available software.

Test [2] deals with T1, human Werner helicase (WRN-BV08, amino acids 517-1235 with L1074F point mutation) (Homo sapiens, UniProt Q14191, L1074F).
T1 construct: [pFastBac1-WRN-(517-1235 L1074F)-TEV-8His]; 8xHis (C, cleaved yes); TEV cleavage site (ENLYFQG) (C); made in house; host or cells: Sf9 insect cells (baculovirus, pFastBac)
Description: ADP-Glo WRN helicase ATPase inhibition assay. The test is classed as biochemical. To be noted: 0.15 nM WRN, 5 μM ATP, 0.1 nM DNA duplex; 15 minutes preincubation, 60 minutes at 25° C.; read-out: ADP-Glo_hWRN_IC50. From the text: Bovine skin gelatin (BSG), dimethyl sulfoxide (DMSO), Pluronic F-127 and tris(2-carboxyethyl)phosphine hydrochloride solution (TCEP) were purchased from Sigma-Aldrich (St. Louis, MO) at the highest level of purity possible. Bicine buffer solution was purchased from Alfa Aesar (Tewksbury, MA) and compound NSC-617145 was purchased from Tocris (Minneapolis, MN). DNA duplex was synthesized at BGI (Shenzhen, China) and was composed of strand 1 with the sequence 5′-[…]-3′ (SEQ ID NO.: 1) and strand 2 with the sequence 5′-[…]-3′ (SEQ ID NO.: 2). DNA strands were annealed by heating to 95° C. for 5 minutes followed by slow cooling to room temperature. Compounds in 100% DMSO (0.1 μl) were spotted into a 384-well white polystyrene Optiplate-384 (Perkin Elmer; Waltham, MA) assay plate using a LabCyte Echo 550 (Agilent; Santa Clara, CA). DMSO (0.1 μl) was added to columns 12, rows A-H and column 24, rows I-P for the maximum signal control. Compound NSC-617145 (0.1 μl) was added to columns 12, rows I-P and 24, rows A-H for the minimum signal control (100% inhibition). Compounds/DMSO were preincubated for 15 minutes at 25° C. with 5 μl 2×WRN (BV08), prepared as described below, in assay buffer containing 20 mM Bicine (pH=7.5), 1 mM MgCl2, 10 mM KCl, 0.1% Pluronic F-127, 0.005% BSG, 1 mM TCEP. The reaction was initiated by the addition of 5 μl 2× substrate mixture in assay buffer and incubated for 60 minutes at 25° C. The final concentrations of the assay components were 0.15 nM WRN, 5 μM ATP, and 0.1 nM DNA duplex. The final DMSO concentration was 1% and the reference compound concentration (NSC-617145) used for the minimal signal control was 20 μM. The reaction was stopped by the addition of the ADP-Glo Kit components (Promega; Madison, WI) as directed and the relative luminescence units (RLU) were read on an Envision 2104 (Perkin Elmer; Waltham, MA). % inhibition calculation:
Where RLU=relative luminescence units, sample=signal in sample well, and MIN and MAX are the respective minimum and maximum signal controls.
Four-Parameter IC50 Fit Equation:
Where top and bottom are normally allowed to float but may be fixed at 100 or 0 respectively in a 3-parameter fit. Y is the % inhibition and X is the compound concentration.
Molecular Biology and virus production. The DNA encoding human Werner helicase (Uniprot Q14191, amino acids 517-1235 with L1074F point mutation) was generated with codon-optimization for E. coli expression and subcloned into the pFastBac vector with a TEV cleavable 8×His tag (SEQ ID NO: 5) (WRN-BV08). The baculovirus from the expression plasmid WRN-BV08 was generated from transfection and amplification following the manufacturer's instructions.
Sf9 cells grown in SF900II media were infected with 1:200 WRN-BV08 P2 virus and incubated for protein expression for 72 h at 27° C. The WRN protein was purified using the following protocol. The cell pellets were thawed and resuspended in buffer A (50 mM Tris, pH 7.5, 500 mM NaCl, 1 mM TCEP, 10% Glycerol) supplemented with 0.5% CHAPS, 1 mM PMSF, […] Leupeptin, 1 μg/ml Pepstatin, and the Pierce Universal Nuclease and cocktail tablet. Cleared lysates were loaded onto a Ni Sepharose™ excel column and washed with buffer A and bound protein was eluted with buffer A supplemented with 300 mM imidazole. The eluted protein was dialyzed against buffer A and digested by His-tagged TEV (1:5 ratio) overnight at 4° C. ZnCl2 was added into the sample at final 15 μM before loading onto a second Ni Sepharose™ excel column. Untagged WRN protein was eluted from the column with buffer A supplemented with 20 mM imidazole, dialyzed overnight into buffer B (50 mM Tris, pH 7.5, 1 mM TCEP, 10% Glycerol) supplemented with 150 mM NaCl and loaded onto a Heparin column. Proteins were eluted with a step gradient of buffer B supplemented with 150 mM, 200 mM, 300 mM and 500 mM NaCl. […]

T1 sequence (Q14191 with tags, fused parts or gaps L1074F): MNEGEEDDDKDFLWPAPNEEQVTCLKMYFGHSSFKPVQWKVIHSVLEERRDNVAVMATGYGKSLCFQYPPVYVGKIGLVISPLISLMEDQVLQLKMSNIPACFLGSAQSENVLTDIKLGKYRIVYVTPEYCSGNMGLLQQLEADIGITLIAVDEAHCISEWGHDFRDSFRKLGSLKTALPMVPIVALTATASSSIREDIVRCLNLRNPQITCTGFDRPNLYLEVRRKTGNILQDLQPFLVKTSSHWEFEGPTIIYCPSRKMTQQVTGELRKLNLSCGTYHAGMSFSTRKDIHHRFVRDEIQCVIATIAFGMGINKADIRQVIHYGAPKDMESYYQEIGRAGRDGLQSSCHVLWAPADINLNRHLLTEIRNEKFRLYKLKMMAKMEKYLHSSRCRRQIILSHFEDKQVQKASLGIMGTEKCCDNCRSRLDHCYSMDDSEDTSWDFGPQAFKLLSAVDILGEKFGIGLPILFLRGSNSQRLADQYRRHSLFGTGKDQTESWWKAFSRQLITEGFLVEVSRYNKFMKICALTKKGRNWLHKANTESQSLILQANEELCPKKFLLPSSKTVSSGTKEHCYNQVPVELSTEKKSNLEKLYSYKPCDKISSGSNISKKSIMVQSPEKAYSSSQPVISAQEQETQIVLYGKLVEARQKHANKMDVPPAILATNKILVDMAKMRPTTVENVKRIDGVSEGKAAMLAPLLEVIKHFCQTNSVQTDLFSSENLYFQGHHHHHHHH

`Cc1ncnc(C(=O)N2CCN(c3c4n(c5nn(C6CC6)nc5c3=O)[C@H](C(=O)Nc3ccc(C(F)(F)F)cc3Cl)C[C@H]4C)[C@H]3CC[C@@H]32)c1O` (relative stereo) [Compound I-27, (6R*,8R**)-N-[2-chloro-4-(trifluoromethyl)phenyl]-2-cyclopropyl-5-[(1S,6S)-5-(5-hydroxy-6-methylpyrimidine-4-carbonyl)-2,5-diazabicyclo[4.2.0]octan-2-yl]-6-methyl-4-oxo-2H,4H,6H,7H,8H-[1,2,3]triazolo[4,5-e]indolizine-8-carboxamide]: the EC50 in test [1] is at most 500 nM. Besides, the IC50 in test [2] is at most 5 nM.
The matching figures for `Cc1ncnc(C(=O)N2CCN(c3c4n(c5nn(C6CC6)nc5c3=O)[C@@H](C(=O)Nc3ccc(C(F)(F)F)cc3Cl)C[C@@H]4C)[C@H]3CC[C@@H]32)c1O` (relative stereo) [Compound I-28, (6R*,8R**)-N-[2-chloro-4-(trifluoromethyl)phenyl]-2-cyclopropyl-5-[(1S,6S)-5-(5-hydroxy-6-methylpyrimidine-4-carbonyl)-2,5-diazabicyclo[4.2.0]octan-2-yl]-6-methyl-4-oxo-2H,4H,6H,7H,8H-[1,2,3]triazolo[4,5-e]indolizine-8-carboxamide]: 500 to 2000 nM and 5 to 50 nM.
For the molecule `COc1cc(-n2nc3c(=O)c(N4CCN(C(=O)c5ncnc(C)c5O)[C@H]5CC[C@@H]54)c4n(c3n2)[C@@H](C(=O)NC23CC(C5CC5)(C2)C3)C[C@@H]4C)ccn1` (single isomer, unassigned) [Compound I-1], in test [1], the EC50 was at most 500 nM. The IC50 in test [2] was in the range of 5 to 50 nM.
`COc1cc(-n2nc3c(=O)c(N4CCN(C(=O)c5ncnc(C)c5O)[C@H]5CC[C@@H]54)c4n(c3n2)[C@@H](C(=O)NC23CC(C5CC5)(C2)C3)C[C@H]4C)ccn1` (single isomer, unassigned) [Compound I-2]: the EC50 in test [1] was at most 500 nM. Moreover, the IC50 in test [2] lay within 5 to 50 nM.
The matching figures for `COc1cc(-n2nc3c(=O)c(N4CCN(C(=O)c5ncnc(C)c5O)[C@H]5CC[C@@H]54)c4n(c3n2)[C@H](C(=O)NC23CC(C5CC5)(C2)C3)C[C@H]4C)ccn1` (single isomer, unassigned) [Compound I-3]: 500 to 2000 nM and 50 to 100 nM.
The like results for `COc1cc(-n2nc3c(=O)c(N4CCN(C(=O)c5ncnc(C)c5O)[C@H]5CC[C@@H]54)c4n(c3n2)[C@H](C(=O)NC23CC(C5CC5)(C2)C3)C[C@@H]4C)ccn1` (single isomer, unassigned) [Compound I-4] were, in that order, above 5000 nM and 100 to 500 nM.
The like results for `COc1cc(-n2nc3c(=O)c(N4CCN(C(=O)c5ncnc(C)c5O)[C@H]5CC[C@@H]54)c4n(c3n2)[C@@H](C(=O)Nc2ccc(C(F)(F)F)cc2Cl)C[C@H]4C)ccn1` (single isomer, unassigned) [Compound I-5] were, in that order, at most 500 nM and at most 5 nM.
In the case of `COc1cc(-n2nc3c(=O)c(N4CCN(C(=O)c5ncnc(C)c5O)[C@H]5CC[C@@H]54)c4n(c3n2)[C@H](C(=O)Nc2ccc(C(F)(F)F)cc2F)C[C@@H]4C)ccn1` (single isomer, unassigned) [Compound I-6], in test [1], the EC50 was at most 500 nM. Also, the IC50 in test [2] was at most 5 nM.
The matching figures for `Cc1cnc2c(n1)c(=O)c(N1CCN(C(=O)c3ncnc(C)c3O)[C@H]3CC[C@@H]31)c1n2[C@H](C(=O)Nc2ccc(C(F)(F)F)cc2Cl)C[C@@H]1C` (single isomer, unassigned) [Compound I-7]: at most 500 nM and at most 5 nM.
The matching figures for `Cc1cnc2c(n1)c(=O)c(N1CCN(C(=O)c3ncnc(C)c3O)[C@H]3CC[C@@H]31)c1n2[C@@H](C(=O)Nc2ccc(C(F)(F)F)cc2Cl)C[C@H]1C` (single isomer, unassigned) [Compound I-8]: above 5000 nM and 100 to 500 nM.
The matching figures for `COc1cc(-n2nc3c(=O)c(N4CCN(C(=O)c5ncnc(C)c5O)[C@H]5CC[C@@H]54)c4n(c3n2)[C@H](C(=O)Nc2ccc(C(F)(F)F)cc2Cl)C[C@@H]4C)ccn1` (single isomer, unassigned) [Compound I-9]: 500 to 2000 nM and 100 to 500 nM.
As for `COc1cc(-n2nc3c(=O)c(N4CCN(C(=O)c5ncnc(C)c5O)[C@H]5CC[C@@H]54)c4n(c3n2)[C@H](C(=O)Nc2ccc(C(F)(F)F)cc2Cl)C[C@H]4C)ccn1` (single isomer, unassigned) [Compound I-13], the IC50 in test [2] is at most 5 nM.
For the molecule `Cc1nc2c(=O)c(N3CCN(C(=O)c4ncnc(C)c4O)[C@H]4CC[C@@H]43)c3n(c2nc1C)[C@@H](C(=O)Nc1ccc2c(c1Cl)OC(F)(F)O2)C[C@H]3C` [Compound I-26, (7R,9R)—N-(4-chloro-2,2-difluoro-2H-1,3-benzodioxol-5-yl)-6-[(1S,6S)-5-(5-hydroxy-6-methylpyrimidine-4-carbonyl)-2,5-diazabicyclo[4.2.0]octan-2-yl]-2,3,7-trimethyl-5-oxo-5H,7H,8H,9H-pyrazino[2,3-e]indolizine-9-carboxamide], the EC50 in test [1] is at most 500 nM.
